Test results: US9012395B2, “Treatment of extracellular matrix to reduce inflammation” (The Cleveland Clinic Foundation, priority 2011, dated 2015)

Experiment: Solubility of HA

Concentration of HA solutions that can be prepared: ≥ 20000 µg/mL
Substance: hyaluronan [HA]
